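A five-concentration, 48-hour dose response in 96-well plates underlies each endpoint, interpolated linearly between surrounding concentrations. GI50 marks 50% less growth.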 The source made the active and inactive calls. Rule as the data show it: active = GI50 up to about 1.1 µM and inactive = higher.
How the values were obtained:
Assay in all cases: NCI-60 cell line screen, 48 h
KM-20L2 = system: KM-20L2
DMS-114 = system: DMS-114
SNB-75 = system: SNB-75
786-0 = system: 786-0
HL-60 = system: HL-60
HT-29 = system: HT-29
SK-MEL-28 = system: SK-MEL-28
LXFL 529 = system: LXFL 529
RXF 393 = system: RXF 393
SR = system: SR
KM12 = system: KM12
OVCAR-5 = system: OVCAR-5
SF-295 = system: SF-295
MOLT-4 = system: MOLT-4
NCI-H23 = system: NCI-H23
UO-31 = system: UO-31
SW-620 = system: SW-620
U-251 = system: U-251
M19-MEL = system: M19-MEL
NCI-H226 = system: NCI-H226
Malme-3M = system: Malme-3M
DLD-1 = system: DLD-1
IGROV-1 = system: IGROV-1
SF-539 = system: SF-539
UACC-257 = system: UACC-257
SF-268 = system: SF-268
XF498 = system: XF498
OVCAR-3 = system: OVCAR-3
OVCAR-4 = system: OVCAR-4
EKVX = system: EKVX
OVCAR-8 = system: OVCAR-8
NCI-H522 = system: NCI-H522
SK-MEL-2 = system: SK-MEL-2
HOP-62 = system: HOP-62
HOP-92 = system: HOP-92
TK-10 = system: TK-10
SN12C = system: SN12C
COLO 205 = system: COLO 205
ACHN = system: ACHN
HCC 2998 = system: HCC 2998
SNB-78 = system: SNB-78
RPMI-8226 = system: RPMI-8226
LOX IMVI = system: LOX IMVI
HCT-15 = system: HCT-15
HCT-116 = system: HCT-116
K562 = system: K562
HOP-18 = system: HOP-18
NCI-H460 = system: NCI-H460
A498 = system: A498
A549 = system: A549
SNB-19 = system: SNB-19

SMILES: CCOC(=O)C1Sc2ccccc2N=C1C (stereo unspecified)
- GI50 (KM-20L2): > 100 µM (inactive)
- GI50 (DMS-114): > 100 µM (inactive)
- GI50 (SNB-75): > 100 µM (inactive)
- GI50 (786-0): > 100 µM (inactive)
- GI50 (HL-60): > 100 µM (inactive)
- GI50 (HT-29): > 100 µM (inactive)
- GI50 (SK-MEL-28): > 100 µM (inactive)
- GI50 (LXFL 529): > 100 µM (inactive)
- GI50 (RXF 393): > 100 µM (inactive)
- GI50 (SR): > 100 µM (inactive)
- GI50 (KM12): > 100 µM (inactive)
- GI50 (OVCAR-5): > 100 µM (inactive)
- GI50 (SF-295): > 100 µM (inactive)
- GI50 (MOLT-4): > 100 µM (inactive)
- GI50 (NCI-H23): > 100 µM (inactive)
- GI50 (UO-31): > 100 µM (inactive)
- GI50 (SW-620): > 100 µM (inactive)
- GI50 (U-251): > 100 µM (inactive)
- GI50 (M19-MEL): > 100 µM (inactive)
- GI50 (NCI-H226): > 100 µM (inactive)
- GI50 (Malme-3M): > 100 µM (inactive)
- GI50 (DLD-1): > 100 µM (inactive)
- GI50 (IGROV-1): > 100 µM (inactive)
- GI50 (SF-539): > 100 µM (inactive)
- GI50 (UACC-257): > 100 µM (inactive)
- GI50 (SF-268): > 100 µM (inactive)
- GI50 (XF498): > 100 µM (inactive)
- GI50 (OVCAR-3): > 100 µM (inactive)
- GI50 (OVCAR-4): > 100 µM (inactive)
- GI50 (EKVX): > 100 µM (inactive)
- GI50 (OVCAR-8): > 100 µM (inactive)
- GI50 (NCI-H522): > 100 µM (inactive)
- GI50 (SK-MEL-2): > 100 µM (inactive)
- GI50 (HOP-62): > 100 µM (inactive)
- GI50 (HOP-92): > 100 µM (inactive)
- GI50 (TK-10): > 100 µM (inactive)
- GI50 (SN12C): > 100 µM (inactive)
- GI50 (COLO 205): > 100 µM (inactive)
- GI50 (ACHN): > 100 µM (inactive)
- GI50 (HCC 2998): > 100 µM (inactive)
- GI50 (SNB-78): > 100 µM (inactive)
- GI50 (RPMI-8226): > 100 µM (inactive)
- GI50 (LOX IMVI): > 100 µM (inactive)
- GI50 (HCT-15): > 100 µM
- GI50 (HCT-116): > 100 µM (inactive)
- GI50 (K562): > 100 µM (inactive)
- GI50 (HOP-18): > 100 µM (inactive)
- GI50 (NCI-H460): > 100 µM (inactive)
- GI50 (A498): > 100 µM (inactive)
- GI50 (A549): > 100 µM (inactive)
- GI50 (SNB-19): > 100 µM (inactive)
